Experimental data: patent US10300071B2, “Compositions and methods for inhibition of mycobacteria” (priority 2014, dated 2019)

Target: Mtb AccD6 (Mycobacterium tuberculosis, UniProt P9WQH5)
Test: biochemical
Format: biochemical
Settings: 20 uM

Chain of Mtb AccD6 (P9WQH5 whole entry, looked up): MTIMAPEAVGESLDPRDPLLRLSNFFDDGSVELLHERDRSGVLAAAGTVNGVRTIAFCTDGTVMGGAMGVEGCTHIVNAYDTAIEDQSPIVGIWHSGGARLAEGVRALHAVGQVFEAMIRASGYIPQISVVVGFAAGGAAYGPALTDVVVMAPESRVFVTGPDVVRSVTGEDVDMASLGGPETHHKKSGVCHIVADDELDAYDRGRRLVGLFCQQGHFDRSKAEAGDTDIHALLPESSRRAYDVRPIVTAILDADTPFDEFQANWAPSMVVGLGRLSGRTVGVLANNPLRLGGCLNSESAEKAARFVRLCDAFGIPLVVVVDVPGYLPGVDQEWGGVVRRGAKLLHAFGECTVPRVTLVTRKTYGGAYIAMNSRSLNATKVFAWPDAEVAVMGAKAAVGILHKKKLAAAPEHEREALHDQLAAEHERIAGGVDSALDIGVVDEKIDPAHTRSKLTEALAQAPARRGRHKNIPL

| SMILES | inhibition at 20 uM |
| --- | --- |
| CONC(=O)CN1CCC(Oc2nc3ccc(Cl)cc3s2)CC1 [WUXI-N4, 2-{4-[(6-chloro-1,3-benzothiazol-2-yl)oxy]piperidin-1-yl}-N-methoxyacetamide] | No inhibition at 20 uM |
| CONC(=O)CCN1CCC(Oc2nc3ccc(Cl)cc3s2)CC1 [WUXI-N5, 3-{4-[(6-chloro-1,3-benzothiazol-2-yl)oxy]piperidin-1-yl}-N-methoxypropanamide] | No inhibition at 20 uM |

Same assay, conditions: 20 uM, pH 8.0; read-out: inhibition at 20 uM- pH 8.0

| SMILES | inhibition at 20 µM |
| --- | --- |
| CC(C)NC(=O)Nc1ccc(Oc2nc3ccc(Cl)cc3s2)nc1 [WuXi-N6, 1-{6-[(6-chloro-1,3-benzothiazol-2-yl)oxy]pyridin-3-yl}-3-(propan-2-yl)urea] | 11% |
| CC(C)NC(=O)Nc1ccc(Oc2nc3ccc(Cl)cc3s2)cn1 [WuXi-N8, 1-{5-[(6-chloro-1,3-benzothiazol-2-yl)oxy]pyridin-2-yl}-3-(propan-2-yl)urea] | 40% |

Same assay, conditions: 20 uM, pH 8.5; read-out: inhibition at 20 uM- pH 8.5

| SMILES | inhibition at 20 µM |
| --- | --- |
| CC(C)NC(=O)Nc1ccc(Oc2nc3ccc(Cl)cc3s2)nc1 [WuXi-N6, 1-{6-[(6-chloro-1,3-benzothiazol-2-yl)oxy]pyridin-3-yl}-3-(propan-2-yl)urea] | 17% |
| CC(C)NC(=O)Nc1ccc(Oc2nc3ccc(Cl)cc3s2)cn1 [WuXi-N8, 1-{5-[(6-chloro-1,3-benzothiazol-2-yl)oxy]pyridin-2-yl}-3-(propan-2-yl)urea] | 47% |

Same assay, conditions: 300 μM malonyl-CoA, inhibitor 10 μM to 2000 μM; read-out: IC50

| SMILES | IC50 |
| --- | --- |
| C[C@@H](Oc1ccc(Oc2nc3ccc(Cl)cc3s2)cc1)C(=O)O [NZ-247, (2R)-2-{4-[(6-chloro-1,3-benzothiazol-2-yl)oxy]phenoxy}propanoic acid] | 2500 nM |
| C[C@@H](Oc1ccc(Oc2nc3ccc(Br)cc3s2)cc1)C(=O)O [NZ-253, (2R)-2-{4-[(6-bromo-1,3-benzothiazol-2-yl)oxy]phenoxy}propanoic acid] | > 15000 nM |
| C[C@@H](Oc1ccc(Oc2nc3ccccc3s2)cc1)C(=O)O [NZ-254, (2R)-2-[4-(1,3-benzothiazol-2-yloxy)phenoxy]propanoic acid] | > 15000 nM |
| C[C@@H](Oc1ccc(Oc2nc3ccc(F)cc3s2)cc1)C(=O)O [NZ-255, (2R)-2-{4-[(6-fluoro-1,3-benzothiazol-2-yl)oxy]phenoxy}propanoic acid] | 1200 nM |
| O=C(O)COc1ccc(Oc2cnc3cc(Cl)ccc3n2)cc1 [NZ-257, 2-{4-[(6-chloroquinoxalin-2-yl)oxy]phenoxy}acetic acid] | 1500 to 1900 nM |
| C[C@@H](Oc1ccc(Oc2nc3ccc([N+](=O)[O-])cc3s2)cc1)C(=O)O [NZ-261, (2R)-2-{4-[(6-nitro-1,3-benzothiazol-2-yl)oxy]phenoxy}propanoic acid] | 1800 nM |
| CN1CCN(C(=O)Cc2ccc(Oc3nc4cc(F)c(F)cc4s3)cc2)CC1 [NZ-409, 2-{4-[(5,6-difluoro-1,3-benzothiazol-2-yl)oxy]phenyl}-1-(4-methylpiperazin-1-yl)ethan-1-one] | 660 nM |
| CNC(=O)Cc1ccc(Oc2nc3ccc(F)cc3s2)cc1F [NZ-410, 2-{2-fluoro-4-[(6-fluoro-1,3-benzothiazol-2-yl)oxy]phenyl}-N-methylacetamide] | 380 nM |
| CNC(=O)Cc1ccc(Oc2nc3cc(F)c(F)cc3s2)cc1F [NZ-411, 2-{4-[(5,6-difluoro-1,3-benzothiazol-2-yl)oxy]-2-fluorophenyl}-N-methylacetamide] | 240 nM |
| Nc1ccc(Oc2nc3ccc(F)cc3s2)cc1 [NZ-413, 4-[(6-fluoro-1,3-benzothiazol-2-yl)oxy]aniline] | 14000 nM |
| CC(C)(C)OC(=O)NCC(=O)Nc1ccc(Oc2nc3ccc(F)cc3s2)cc1 [NZ-415, tert-butyl N-[({4-[(6-fluoro-1,3-benzothiazol-2-yl)oxy]phenyl}carbamoyl)methyl]carbamate] | 20000 nM |

Same assay, conditions: read-out: inhibition at 20 uM

| SMILES | inhibition at 20 µM |
| --- | --- |
| CC(C)(C)OC(=O)Nc1ccc(Oc2nc3ccc(F)cc3s2)cc1 [NZ-412, terl-butyl N-{4-[(6-fluoro-1,3-benzothiazol-2-yl)oxy]phenyl}carbamate] | 17% |
| NCCC(=O)Nc1ccc(Oc2nc3ccc(F)cc3s2)cc1 [NZ-416, 3-amino-N-{4-[(6-fluoro-1,3-benzothiazol-2-yl)oxy]phenyl}propanamide] | 20% |
| NCC(=O)Nc1ccc(Oc2nc3ccc(F)cc3s2)cc1 [NZ-417, 2-amino-N-{4-[(6-fluoro-1,3-benzothiazol-2-yl)oxy]phenyl}acetamide] | 10% |
| CC(C)NC(=O)Nc1ccc(Oc2nc3ccc(Cl)cc3s2)nn1 [WuXi-N7, 1-{6-[(6-chloro-1,3-benzothiazol-2-yl)oxy]pyridazin-3-yl}-3-(propan-2-yl)urea] | 18% |
